The text below walks through data of patent US7553861B2, “Dipeptidyl peptidase-IV inhibitors” (Alantos Pharmaceuticals Holding, Inc., priority 2005, dated 2009).

The target of the assay is T1, DPP-IV (Homo sapiens, UniProt P27487).
T1 construct: purchased R&D Systems GmbH, Germany
In words: Assay for determining DP-IV inhibition (fluorometric, Gly-Pro-AMC substrate). Format: biochemical. Conditions: Inhibition of DPP-IV, K(i) calculated from IC(50) with IC(50)=K(i)(1+[S]/Km), pH 8.0. On the procedure:
The inhibitory activity of compounds against DPP-IV can be determined by in vitro assay systems, which are themselves well established in the art. The assay results given in Table 5 were obtained according to the following method, employing a modified version of the assay described by Leiting et al., in an article entitled “Catalytic properties and inhibition of proline-specific dipeptidyl peptidases II, IV and VII” in Biochem. J. Vol. 371, pages 525-532 (2003):
DPP-IV activity was determined fluorometrically with Gly-Pro-AMC (where AMC stands for 7-amido-4-methylcoumarin, Bachem AG, Switzerland) as substrate. The reaction mixture contained 10 μl of 1 ng/μl DPP-IV (R&D Systems GmbH, Germany) and 80 μl of 25 mM Tris/HCl buffer, pH 8.0. Compounds were supplied as DMSO stock solutions and diluted in assay buffer to a maximal DMSO concentration of 1% in the assay. Prior to start of the reaction, the mixture was incubated for 30 min at room temperature. The reaction was started by addition of 10 μl of 100 μM substrate solution.
The fluorescence intensity was measured at excitation and emission wavelengths of 355 and 460 nm, respectively, in a FluoStar Galaxy Multiwell Plate (BMG Labtech, Germany). Fluorescence was determined 3 and 4 minutes after start of reaction and increase in fluorescence was used for determination of enzymatic activity. IC(50) values of tested compounds were determined via plotting enzymatic activity versus concentration of test compound and determining the concentration of test compound which yields a 50% inhibition of enzymatic activity.
K(i) values were calculated using the Michaelis-Menten equation for competitive inhibition: IC(50)=K(i)(1+[S]/Km)

SMILES strings stand for the structures.

T1 sequence (P27487 whole entry): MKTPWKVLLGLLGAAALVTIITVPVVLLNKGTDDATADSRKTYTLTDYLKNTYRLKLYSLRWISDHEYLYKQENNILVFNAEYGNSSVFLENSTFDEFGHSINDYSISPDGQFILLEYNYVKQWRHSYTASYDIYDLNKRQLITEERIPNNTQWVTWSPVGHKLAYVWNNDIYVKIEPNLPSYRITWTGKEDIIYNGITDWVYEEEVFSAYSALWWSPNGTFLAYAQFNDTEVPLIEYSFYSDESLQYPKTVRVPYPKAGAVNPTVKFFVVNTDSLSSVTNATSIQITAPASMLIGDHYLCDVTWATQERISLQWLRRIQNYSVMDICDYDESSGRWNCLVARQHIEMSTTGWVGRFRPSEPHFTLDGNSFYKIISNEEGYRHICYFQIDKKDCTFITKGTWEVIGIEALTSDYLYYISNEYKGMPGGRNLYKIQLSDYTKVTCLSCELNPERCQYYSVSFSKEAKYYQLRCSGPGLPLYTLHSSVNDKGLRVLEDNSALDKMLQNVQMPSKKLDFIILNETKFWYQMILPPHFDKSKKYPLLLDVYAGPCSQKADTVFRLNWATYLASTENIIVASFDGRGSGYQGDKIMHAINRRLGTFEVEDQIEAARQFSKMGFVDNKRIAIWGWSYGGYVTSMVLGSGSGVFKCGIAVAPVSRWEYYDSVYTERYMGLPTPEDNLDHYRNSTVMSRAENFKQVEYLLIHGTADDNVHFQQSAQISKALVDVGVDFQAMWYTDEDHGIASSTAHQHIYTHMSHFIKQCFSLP

As for `N#C[C@@H]1CCCN1C(=O)CNCCNC1c2ccccc2CCc2ccccc21` [Example 1], the Ki is 51 to 500 nM.

Take `N#C[C@@H]1CCCN1C(=O)CNC1c2ccccc2CCc2ccccc21` [Example 2]: the Ki was 500 to 30000 nM.

On to `CC(C)(CNC1c2ccccc2CCc2ccccc21)NCC(=O)N1CCC[C@H]1C#N` [Example 3], for which the Ki is 500 to 30000 nM.

With `N#C[C@@H]1CCCN1C(=O)CNCC1c2ccccc2CCc2ccccc21` [Example 4], the Ki is 500 to 30000 nM.

As to `N#C[C@@H]1CCCN1C(=O)CNCC(=O)N1c2ccccc2CCc2ccccc21` [Example 5], the Ki is 500 to 30000 nM.

`N#C[C@@H]1CCCN1C(=O)CNCCN1c2ccccc2C=Cc2ccccc21` [Example 7]: the Ki is 51 to 500 nM.

Turning to `N#C[C@@H]1CCCN1C(=O)CNCCCN1c2ccccc2CCc2ccccc21` [Example 9], the Ki is 51 to 500 nM.

As for `N#C[C@@H]1CCCN1C(=O)CNCCC1(O)c2ccccc2CCc2ccccc21` [Example 10], the Ki is 51 to 500 nM.

Take `N#C[C@@H]1CCCN1C(=O)CNCC=C1c2ccccc2CCc2ccccc21` [Example 11]: the Ki was 51 to 500 nM.

For `N#C[C@@H]1CCCN1C(=O)CNC1CCN(C2c3ccccc3CCc3ccccc32)CC1` [Example 12], the Ki was 51 to 500 nM.

Take `N#C[C@@H]1CCCN1C(=O)CNC1CCN(C2c3ccccc3CCc3ccccc32)C1` (stereo partly shown) [Example 13]: the Ki is 51 to 500 nM.

With `N#C[C@@H]1CCCN1C(=O)CNC1CN(C2c3ccccc3CCc3ccccc32)C1` [Example 14], the Ki is 500 to 30000 nM.

`N#C[C@@H]1CCCN1C(=O)CNC1c2ccc(Cl)cc2CCc2cccnc21` (stereo partly shown) [Example 15]: the Ki is 500 to 30000 nM.

On to `N#C[C@@H]1CCCN1C(=O)CNCCC1(C#N)c2ccccc2CCc2ccccc21` [Example 16], for which the Ki is 51 to 500 nM.

Consider `N#C[C@@H]1CCCN1C(=O)CNCCC1(C(N)=O)c2ccccc2CCc2ccccc21` [Example 17], for which the Ki is 6 to 50 nM.

For the molecule `C[C@@H](CC1(C(N)=O)c2ccccc2CCc2ccccc21)NCC(=O)N1CCC[C@H]1C#N` [Example 18], the Ki was less than 6 nM.

On to `C[C@H](CC1(C(N)=O)c2ccccc2CCc2ccccc21)NCC(=O)N1CCC[C@H]1C#N` [Example 19], for which the Ki is 6 to 50 nM.

Consider `N#C[C@@H]1CCCN1C(=O)CNCCNC1c2ccc(Cl)cc2CCc2cccnc21` (stereo partly shown) [Example 20], for which the Ki is 51 to 500 nM.

With `N#C[C@@H]1CCCN1C(=O)CNCCNC1c2ccccc2CCc2cccnc21` (stereo partly shown) [Example 21], the inhibition constant Ki was 51 to 500 nM.

Regarding `N#C[C@@H]1CCCN1C(=O)CNCCC1(C(N)=O)c2ccc(C(N)=O)cc2CCc2ccc(F)cc21` (stereo partly shown) [Example 22], the Ki is less than 6 nM.

For `N#C[C@@H]1CCCN1C(=O)CNCCC1(c2nn[nH]n2)c2ccccc2CCc2ccccc21` [Example 23], the Ki is 6 to 50 nM.

Take `N#C[C@@H]1CCCN1C(=O)CNCCC1(c2nn[nH]n2)c2ccc(F)cc2CCc2ccc(F)cc21` (stereo partly shown) [Example 24]: the Ki was less than 6 nM.

Regarding `N#C[C@@H]1CCCN1C(=O)CNCCC1(c2nn[nH]n2)c2ccc(Cl)cc2CCc2cc(Cl)ccc21` [Example 25], the Ki is 6 to 50 nM.

With `C[C@@H](CN1C[C@@H]2C[C@H]1C(=O)N2Cc1cccc(F)c1)NCC(=O)N1CCC[C@H]1C#N` [Example 26], the Ki was 51 to 500 nM.

For `C[C@@H](CC1(c2nn[nH]n2)c2ccc(C(N)=O)cc2CCc2cc(C(N)=O)ccc21)NCC(=O)N1CCC[C@H]1C#N` [Example 27], the Ki was less than 6 nM.

`CNC(=O)c1ccc2c(c1)CCc1cc(C(=O)NC)ccc1C2(C[C@H](C)NCC(=O)N1CCC[C@H]1C#N)c1nn[nH]n1` [Example 28]: the inhibition constant Ki is less than 6 nM.

On to `C[C@@H](CC1(c2nn[nH]n2)c2ccc(C(=O)N(C)C)cc2CCc2cc(C(=O)N(C)C)ccc21)NCC(=O)N1CCC[C@H]1C#N` [Example 29], for which the Ki is less than 6 nM.

As to `CCNC(=O)c1ccc2c(c1)CCc1cc(C(=O)NCC)ccc1C2(C[C@H](C)NCC(=O)N1CCC[C@H]1C#N)c1nn[nH]n1` [Example 30], the inhibition constant (Ki) is less than 6 nM.

As to `CC(C)NC(=O)c1ccc2c(c1)CCc1cc(C(=O)NC(C)C)ccc1C2(C[C@H](C)NCC(=O)N1CCC[C@H]1C#N)c1nn[nH]n1` [Example 31], the Ki is 6 to 50 nM.

With `C[C@@H](CC1(c2nn[nH]n2)c2ccc(C(=O)N3CCC3)cc2CCc2cc(C(=O)N3CCC3)ccc21)NCC(=O)N1CCC[C@H]1C#N` [Example 32], the Ki was less than 6 nM.

Take `C[C@@H](CC1(c2nn[nH]n2)c2ccc(C(=O)N3CCOCC3)cc2CCc2cc(C(=O)N3CCOCC3)ccc21)NCC(=O)N1CCC[C@H]1C#N` [Example 33]: the Ki is less than 6 nM.

As for `N#C[C@@H]1CCCN1C(=O)CNCCC1(c2nn[nH]n2)c2ccc(C(N)=O)cc2CCc2cc(C(N)=O)ccc21` [Example 34], the Ki was less than 6 nM.

Turning to `CNC(=O)c1ccc2c(c1)CCc1cc(C(=O)NC)ccc1C2(CCNCC(=O)N1CCC[C@H]1C#N)c1nn[nH]n1` [Example 35], the Ki was less than 6 nM.

In the case of `CN(C)C(=O)c1ccc2c(c1)CCc1cc(C(=O)N(C)C)ccc1C2(CCNCC(=O)N1CCC[C@H]1C#N)c1nn[nH]n1` [Example 36], the Ki is 6 to 50 nM.

Consider `C[C@@H](CC1(C(N)=O)c2ccc(C(=O)N(C)C)cc2CCc2cc(C(=O)N(C)C)ccc21)NCC(=O)N1CCC[C@H]1C#N` [Example 39], for which the Ki was 6 to 50 nM.

In the case of `C[C@@H](CC1(c2noc(C(F)(F)F)n2)c2ccc(C(=O)N(C)C)cc2CCc2cc(C(=O)N(C)C)ccc21)NCC(=O)N1CCC[C@H]1C#N` [Example 40], the Ki was 500 to 30000 nM.

On to `COC(=O)c1ccc2c(c1)CCc1cc(C(=O)OC)ccc1C2(C[C@H](C)NCC(=O)N1CCC[C@H]1C#N)c1nn[nH]n1` [Example 43], for which the Ki is less than 6 nM.

With `C[C@@H](CC1(c2nn[nH]n2)c2ccc(C(=O)O)cc2CCc2cc(C(=O)O)ccc21)NCC(=O)N1CCC[C@H]1C#N` [Example 44], the Ki was less than 6 nM.

Take `N#C[C@@H]1CCCN1C(=O)CNCCC1(c2nn[nH]n2)c2cc(F)ccc2CCc2ccc(C(N)=O)cc21` (stereo partly shown) [Example 45]: the Ki is 6 to 50 nM.

As for `CN1C(=O)c2ccccc2C(CCNCC(=O)N2CCC[C@H]2C#N)(c2nn[nH]n2)c2ccccc21` (stereo partly shown) [Example 46], the Ki was 500 to 30000 nM.

Consider `N#C[C@@H]1C[C@@H]2C[C@@H]2N1C(=O)CNCCC1(c2nn[nH]n2)c2ccc(C(N)=O)cc2CCc2cc(C(N)=O)ccc21` [Example 47], for which the Ki is less than 6 nM.

`N#C[C@@H]1CCCN1C(=O)[C@@H](N)CN1C[C@@H]2C[C@H]1C(=O)N2Cc1cccc(F)c1` [Example 48]: the Ki was less than 6 nM.

For `N#C[C@@H]1CCCN1C(=O)[C@@H](N)CN1C[C@@H]2C[C@H]1C(=O)N2Cc1c(Cl)cccc1Cl` [Example 49], the Ki is less than 6 nM.

Consider `C[C@@H](c1ccc(F)cc1)N1C(=O)[C@@H]2CC1CN2C[C@H](N)C(=O)N1CCSC1` [Example 50], for which the Ki was 6 to 50 nM.

Consider `N#C[C@@H]1CCCN1C(=O)[C@@H](N)CN1CC2C[C@H]1C(=O)N2Cc1cc(F)cc(F)c1` [Example 51], for which the Ki is less than 6 nM.

With `N#C[C@@H]1C[C@@H]2C[C@@H]2N1C(=O)[C@@H](N)CN1CC2C[C@H]1C(=O)N2Cc1cc(F)cc(F)c1` [Example 52], the Ki was less than 6 nM.

For the molecule `N#Cc1cccc(CN2C(=O)[C@@H]3CC2CN3C[C@H](N)C(=O)N2CCC[C@H]2C#N)c1` [Example 53], the Ki was less than 6 nM.

Take `N#Cc1cccc(CN2C(=O)[C@@H]3CC2CN3C[C@H](N)C(=O)N2[C@H](C#N)C[C@@H]3C[C@@H]32)c1` [Example 54]: the Ki was less than 6 nM.

Take `N#Cc1ccc(CN2C(=O)[C@@H]3CC2CN3C[C@H](N)C(=O)N2CCC[C@H]2C#N)cc1` [Example 55]: the Ki is less than 6 nM.

As for `C[C@H](c1ccc(F)cc1)N1C(=O)[C@@H]2CC1CN2C[C@H](N)C(=O)N1CCC[C@H]1C#N` [Example 56], the Ki is less than 6 nM.

As to `C[C@@H](c1ccc(F)cc1)N1C(=O)[C@@H]2CC1CN2C[C@H](N)C(=O)N1CCC[C@H]1C#N` [Example 57], the Ki was less than 6 nM.

With `C[C@@H](c1ccc(F)cc1)N1C(=O)[C@@H]2CC1CN2C[C@H](N)C(=O)N1[C@H](C#N)C[C@@H]2C[C@@H]21` [Example 58], the Ki is less than 6 nM.

As to `CC(C)(c1ccc(F)cc1)N1C(=O)[C@@H]2CC1CN2C[C@H](N)C(=O)N1CCC[C@H]1C#N` [Example 59], the Ki is less than 6 nM.

Consider `N#C[C@@H]1CCCN1C(=O)[C@@H](N)CN1CC2C[C@H]1C(=O)N2Cc1cccc(C(N)=O)c1` [Example 60], for which the Ki was less than 6 nM.

Turning to `N#C[C@@H]1CCCN1C(=O)[C@@H](N)CN1CC2C[C@H]1C(=O)N2Cc1ccc(C(N)=O)cc1` [Example 61], the Ki was less than 6 nM.

In the case of `CC(C)(c1ccc(F)cc1)N1C(=O)[C@@H]2CC1CN2C[C@H](N)C(=O)N1[C@H](C#N)C[C@@H]2C[C@@H]21` [Example 62], the Ki is less than 6 nM.

Take `N#C[C@@H]1CCCN1C(=O)[C@@H]1C[C@H](N2C[C@@H]3C[C@H]2C(=O)N3Cc2cccc(F)c2)CN1` [Example 63]: the Ki was less than 6 nM.

As for `N#C[C@@H]1C[C@@H]2C[C@@H]2N1C(=O)[C@@H](N)CN1C[C@@H]2C[C@H]1C(=O)N2Cc1cccc(F)c1` [Example 64], the Ki is less than 6 nM.
